Data reported in patent US8324264B1, “Inhibitors of bacterial biofilms and related methods” (Sequoia Sciences, Inc., priority 2011, dated 2012).

Key:
P. aeruginosa biofilms = assay: Biofilm growth assay (spreading biofilm on semi-solid agar), P. aeruginosa; type: cell-based; conditions: biofilm growth assay, overnight 37° C., vs negative controls; Tables 1-5
How it was run: (§1)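 Compound added to semi-solid agar: M8 with 0.2% glucose, 100 μM CaCl2, 1 mM MgSO4, 0.5% Casamino acids (P. aeruginosa) or LB with 0.6% agar, 0.5% glucose (E. coli). Center-inoculated with 5 μL overnight culture, incubated overnight at 37 °C; value is concentration (μg/ml) reducing spreading area ≥85% versus negative controls.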

E. coli biofilms = assay: Biofilm growth assay (spreading biofilm on semi-solid agar), E. coli; type: cell-based; conditions: biofilm growth assay, overnight 37° C., vs negative controls; Tables 1-5
How it was run: as §1

SMILES | P. aeruginosa: concentration that reduces the area of the spreading biofilm by greater than or equal to 85% (P. aeruginosa biofilms) [µg/mL] | E. coli: concentration that reduces the area of the spreading biofilm by greater than or equal to 85% (E. coli biofilms) [µg/mL]
CC1(C)CC[C@]2(C(=O)O)CC[C@]3(C)C(=C(c4ccsc4CN4CCOCC4)CC4[C@@]5(C)Cc6c(n[nH]c6N)C(C)(C)C5CC[C@]43C)C2C1 (stereo partly drawn) [Example 34, (4aS,6aS,6bR,13aR)-12-Amino-2,2,6a,6b,9,9,13a-heptamethyl-15-(2-(morpholinomethyl)thiophen-3-yl)-2,3,4,4a,5,6,6a,6b,7,8,8a,9,11,13,13a,13b,14,15b-octadecahydro-1H-chryseno[1,2-f]indazole-4-a-carboxylic acid] | 1 | 1
CC1(C)CC[C@]2(C(=O)O)CC[C@]3(C)C(=C(c4ccoc4CN4CCNCC4)CC4[C@@]5(C)Cc6c(n[nH]c6N)C(C)(C)[C@@H]5CC[C@]43C)[C@@H]2C1 (stereo partly drawn) [Example 35, (4aS,6aS,6bR,8aR,13aR,15bS)-12-Amino-2,2,6a,6b,9,9,13a-heptamethyl-15-(2-(piperazin-1-ylmethyl)furan-3-yl)-2,3,4,4a,5,6,6a,6b,7,8,8a,9,11,13,13a,13b,14,15b-octadecahydro-1H-chryseno[1,2-f]indazole-4-a-carboxylic acid] | >1 | 1
CN1CCN(Cc2occc2C2=C3[C@@H]4CC(C)(C)CC[C@]4(C(=O)O)CC[C@@]3(C)[C@]3(C)CC[C@H]4C(C)(C)c5n[nH]c(N)c5C[C@]4(C)C3C2)CC1 (stereo partly drawn) [Example 36, (4aS,6aS,6bR,8aR,13aR,15bS)-12-Amino-2,2,6a,6b,9,9,13a-heptamethyl-15-(2-((4-methylpiperazin-1-yl)methyl)furan-3-yl)-2,3,4,4a,5,6,6a,6b,7,8,8a,9,11,13,13a,13b,14,15b-octadecahydro-1H-chryseno[1,2-f]indazole-4-a-carboxylic acid] | >1 | 2
CC1(C)CC[C@]2(C(=O)O)CC[C@]3(C)C(=C(c4ccoc4CN4CCCC4)CC4[C@@]5(C)Cc6c(n[nH]c6N)C(C)(C)C5CC[C@]43C)C2C1 (stereo partly drawn) [Example 37, (4aS,6aS,6bR,13aR)-12-Amino-2,2,6a,6b,9,9,13a-heptamethyl-15-(2-(pyrrolidin-1-ylmethyl)furan-3-yl)-2,3,4,4a,5,6,6a,6b,7,8,8a,9,11,13,13a,13b,14,15b-octadecahydro-1H-chryseno[1,2-f]indazole-4-a-carboxylic acid] | >1 | 1
CC1(C)CC[C@]2(C(=O)O)CC[C@]3(C)C(=C(c4coc(CN5CCCC5)c4)CC4[C@@]5(C)Cc6c(n[nH]c6N)C(C)(C)C5CC[C@]43C)C2C1 (stereo partly drawn) [Example 38, (4aS,6aS,6bR,13aR)-12-Amino-2,2,6a,6b,9,9,13a-heptamethyl-15-(5-(pyrrolidin-1-ylmethyl)furan-3-yl)-2,3,4,4a,5,6,6a,6b,7,8,8a,9,11,13,13a,13b,14,15b-octadecahydro-1H-chryseno[1,2-f]indazole-4-a-carboxylic acid] | 1 | 2
CC1(C)CC[C@]2(C(=O)O)CC[C@]3(C)C(=C(c4coc(CN5CCNCC5)c4)CC4[C@@]5(C)Cc6c(n[nH]c6N)C(C)(C)C5CC[C@]43C)C2C1 (stereo partly drawn) [Example 39, (4aS,6aS,6bR,13aR)-12-Amino-2,2,6a,6b,9,9,13a-heptamethyl-15-(5-(piperazin-1-ylmethyl)furan-3-yl)-2,3,4,4a,5,6,6a,6b,7,8,8a,9,11,13,13a,13b,14,15b-octadecahydro-1H-chryseno[1,2-f]indazole-4-a-carboxylic acid] | 1 | 2
CC1(C)CC[C@]2(C(=O)O)CC[C@]3(C)C(=C(c4coc(CN5CCOCC5)c4)CC4[C@@]5(C)Cc6c(n[nH]c6N)C(C)(C)[C@@H]5CC[C@]43C)[C@@H]2C1 (stereo partly drawn) [Example 40, (4aS,6aS,6bR,8aR,13aR,15bS)-12-Amino-2,2,6a,6b,9,9,13a-heptamethyl-15-(5-(morpholinomethyl)furan-3-yl)-2,3,4,4a,5,6,6a,6b,7,8,8a,9,11,13,13a,13b,14,15b-octadecahydro-1H-chryseno[1,2-f]indazole-4-a-carboxylic acid] | 0.5 | 2
CC1(C)CC[C@]2(C(=O)O)CC[C@]3(C)C(=C(c4ccc(N)nc4)CC4[C@@]5(C)Cc6c(n[nH]c6N)C(C)(C)[C@@H]5CC[C@]43C)[C@@H]2C1 (stereo partly drawn) [Example 41, (4aS,6aS,6bR,8aR,13aR,15bS)-12-Amino-15-(6-aminopyridin-3-yl)-2,2,6a,6b,9,9,13a-heptamethyl-2,3,4,4a,5,6,6a,6b,7,8,8a,9,11,13,13a,13b,14,15b-octadecahydro-1H-chryseno[1,2-f]indazole-4-a-carboxylic acid] | 1 | 2
COc1ccc(C2=C3[C@@H]4CC(C)(C)CC[C@]4(C(=O)O)CC[C@@]3(C)[C@]3(C)CC[C@H]4C(C)(C)c5n[nH]c(N)c5C[C@]4(C)C3C2)cn1 (stereo partly drawn) [Example 42, (4aS,6aS,6bR,8aR,13aR,15bS)-12-Amino-15-(6-methoxypyridin-3-yl)-2,2,6a,6b,9,9,13a-heptamethyl-2,3,4,4a,5,6,6a,6b,7,8,8a,9,11,13,13a,13b,14,15b-octadecahydro-1H-chryseno[1,2-f]indazole-4-a-carboxylic acid] | 0.25 | 1
CNc1ccc(C2=C3[C@@H]4CC(C)(C)CC[C@]4(C(=O)O)CC[C@@]3(C)[C@]3(C)CC[C@H]4C(C)(C)c5n[nH]c(N)c5C[C@]4(C)C3C2)cn1 (stereo partly drawn) [Example 43, (4aS,6aS,6bR,8aR,13aR,15bS)-12-Amino-2,2,6a,6b,9,9,13a-heptamethyl-15-(6-(methylamino)pyridin-3-yl)-2,3,4,4a,5,6,6a,6b,7,8,8a,9,11,13,13a,13b,14,15b-octadecahydro-1H-chryseno[1,2-f]indazole-4-a-carboxylic acid] | 1 | 1
CN(C)c1ccc(C2=C3[C@@H]4CC(C)(C)CC[C@]4(C(=O)O)CC[C@@]3(C)[C@]3(C)CC[C@H]4C(C)(C)c5n[nH]c(N)c5C[C@]4(C)C3C2)cn1 (stereo partly drawn) [Example 44, (4aS,6aS,6bR,8aR,13aR,15bS)-12-Amino-15-(6-(dimethylamino)pyridin-3-yl)-2,2,6a,6b,9,9,13a-heptamethyl-2,3,4,4a,5,6,6a,6b,7,8,8a,9,11,13,13a,13b,14,15b-octadecahydro-1H-chryseno[1,2-f]indazole-4-a-carboxylic acid] | 0.5 | 2
CC1(C)CC[C@]2(C(=O)O)CC[C@]3(C)C(=C(c4ccc(N5CCCC5)nc4)CC4[C@@]5(C)Cc6c(n[nH]c6N)C(C)(C)C5CC[C@]43C)C2C1 (stereo partly drawn) [Example 45, (4aS,6aS,6bR,13aR)-12-Amino-2,2,6a,6b,9,9,13a-heptamethyl-15-(6-(pyrrolidin-1-yl)pyridin-3-yl)-2,3,4,4a,5,6,6a,6b,7,8,8a,9,11,13,13a,13b,14,15b-octadecahydro-1H-chryseno[1,2-f]indazole-4-a-carboxylic acid] | 0.5 | 1
CC1(C)CC[C@]2(C(=O)O)CC[C@]3(C)C(=C(c4cccc5cnccc45)CC4[C@@]5(C)Cc6c(n[nH]c6N)C(C)(C)C5CC[C@]43C)C2C1 (stereo partly drawn) [Example 46, (4aS,6aS,6bR,13aR)-12-Amino-15-(isoquinolin-5-yl)-2,2,6a,6b,9,9,13a-heptamethyl-2,3,4,4a,5,6,6a,6b,7,8,8a,9,11,13,13a,13b,14,15b-octadecahydro-1H-chryseno[1,2-f]indazole-4-a-carboxylic acid] | 0.5 | 1
CC1(C)CC[C@]2(C(=O)O)CC[C@]3(C)C(=C(c4cccc5c4CCNC5)CC4[C@@]5(C)Cc6c(n[nH]c6N)C(C)(C)C5CC[C@]43C)C2C1 (stereo partly drawn) [Example 47, (4aS,6aS,6bR,13aR)-12-Amino-2,2,6a,6b,9,9,13a-heptamethyl-15-(1,2,3,4-tetrahydroisoquinolin-5-yl)-2,3,4,4a,5,6,6a,6b,7,8,8a,9,11,13,13a,13b,14,15b-octadecahydro-1H-chryseno[1,2-f]indazole-4-a-carboxylic acid] | 0.5 | 1
